Experimental data published in patent US12474342B2, “Methods for treating cancer and the use of biomarkers as a predictor of clinical sensitivity to therapies” (CELGENE CORPORATION, priority 2016, dated 2025).
Read-outs that look alike come from different tables or passages of the source.

Columns and labels:
[1] = system: translational readthrough; assay: AML2 readthrough assay (Fluc/Nluc-G36A reporter), OCI-AML2; assay type: cell-based, human; details: 300 μg/ml G418 or 200 nM Compound D
Description: (§1) It is known that amino acid starvation causes GCN2 activation, which phosphorylates eIF2α. Because GSPT1 mediates normal translation termination, it is hypothesized that depletion of GSPT1 by Compound D may cause readthrough of stop codons. Whether the translational readthrough induced by Compound D contributes to the increased levels of p-eIF2α was investigated. OCI-AML2 cells stably expressing the Fluc/Nluc-G36A readthrough reporter were treated with 300 μg/ml G418 or 200 nM Compound D for 2, 4, 6, 8, 10, 12, or 16 hours. The levels of p-eIF2α were measured by immunoblot analysis. AML2 readthrough assay was conducted to measure the readthrough reporter.

GSPT1 = GSPT1 (Homo sapiens, UniProt P15170+Q96SW2); assay: GSPT1 protein reduction, western analysis, OCI-AML2; assay type: cell-based; set-up: reduction in GSPT1 protein level was evaluated in human normal PBMCs; endogenous in cells; host or cells: primary PBMCs from normal donors (ID 4328, 4379) and AML patients (ID 11SH, 09P6); details: for degradation of GSPT1: 100 nM
GSPT1, sequence (P15170 1-637 isoform P15170-3): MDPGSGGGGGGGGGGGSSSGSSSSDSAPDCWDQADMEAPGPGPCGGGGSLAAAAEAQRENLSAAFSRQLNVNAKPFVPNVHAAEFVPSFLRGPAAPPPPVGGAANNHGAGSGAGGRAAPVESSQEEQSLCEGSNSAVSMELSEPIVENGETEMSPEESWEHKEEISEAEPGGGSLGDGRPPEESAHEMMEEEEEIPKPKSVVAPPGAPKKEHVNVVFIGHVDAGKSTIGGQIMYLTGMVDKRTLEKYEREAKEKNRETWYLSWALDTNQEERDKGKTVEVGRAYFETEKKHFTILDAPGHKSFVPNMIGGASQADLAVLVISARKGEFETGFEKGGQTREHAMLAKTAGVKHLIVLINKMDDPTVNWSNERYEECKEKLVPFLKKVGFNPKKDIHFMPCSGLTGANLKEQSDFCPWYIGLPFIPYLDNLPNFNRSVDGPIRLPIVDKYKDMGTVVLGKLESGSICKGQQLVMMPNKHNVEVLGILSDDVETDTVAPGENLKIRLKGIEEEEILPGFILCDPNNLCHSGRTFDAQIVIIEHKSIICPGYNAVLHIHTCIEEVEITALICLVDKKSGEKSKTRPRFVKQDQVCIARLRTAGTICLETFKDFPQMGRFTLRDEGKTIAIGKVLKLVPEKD
GSPT1, sequence (Q96SW2 whole entry): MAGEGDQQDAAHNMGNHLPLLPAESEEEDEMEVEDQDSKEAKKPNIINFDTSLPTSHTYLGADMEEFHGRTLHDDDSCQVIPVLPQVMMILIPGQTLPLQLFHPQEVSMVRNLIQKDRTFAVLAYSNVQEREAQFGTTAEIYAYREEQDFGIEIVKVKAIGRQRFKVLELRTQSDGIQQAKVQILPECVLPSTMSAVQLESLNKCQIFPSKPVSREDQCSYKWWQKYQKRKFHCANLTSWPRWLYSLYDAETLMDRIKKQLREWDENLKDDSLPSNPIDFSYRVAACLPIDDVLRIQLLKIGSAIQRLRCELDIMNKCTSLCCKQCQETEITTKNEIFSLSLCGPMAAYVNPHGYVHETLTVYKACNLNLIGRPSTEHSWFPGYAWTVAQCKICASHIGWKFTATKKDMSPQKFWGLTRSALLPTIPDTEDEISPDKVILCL
GSPT1, sequence (Q16531 whole entry partner): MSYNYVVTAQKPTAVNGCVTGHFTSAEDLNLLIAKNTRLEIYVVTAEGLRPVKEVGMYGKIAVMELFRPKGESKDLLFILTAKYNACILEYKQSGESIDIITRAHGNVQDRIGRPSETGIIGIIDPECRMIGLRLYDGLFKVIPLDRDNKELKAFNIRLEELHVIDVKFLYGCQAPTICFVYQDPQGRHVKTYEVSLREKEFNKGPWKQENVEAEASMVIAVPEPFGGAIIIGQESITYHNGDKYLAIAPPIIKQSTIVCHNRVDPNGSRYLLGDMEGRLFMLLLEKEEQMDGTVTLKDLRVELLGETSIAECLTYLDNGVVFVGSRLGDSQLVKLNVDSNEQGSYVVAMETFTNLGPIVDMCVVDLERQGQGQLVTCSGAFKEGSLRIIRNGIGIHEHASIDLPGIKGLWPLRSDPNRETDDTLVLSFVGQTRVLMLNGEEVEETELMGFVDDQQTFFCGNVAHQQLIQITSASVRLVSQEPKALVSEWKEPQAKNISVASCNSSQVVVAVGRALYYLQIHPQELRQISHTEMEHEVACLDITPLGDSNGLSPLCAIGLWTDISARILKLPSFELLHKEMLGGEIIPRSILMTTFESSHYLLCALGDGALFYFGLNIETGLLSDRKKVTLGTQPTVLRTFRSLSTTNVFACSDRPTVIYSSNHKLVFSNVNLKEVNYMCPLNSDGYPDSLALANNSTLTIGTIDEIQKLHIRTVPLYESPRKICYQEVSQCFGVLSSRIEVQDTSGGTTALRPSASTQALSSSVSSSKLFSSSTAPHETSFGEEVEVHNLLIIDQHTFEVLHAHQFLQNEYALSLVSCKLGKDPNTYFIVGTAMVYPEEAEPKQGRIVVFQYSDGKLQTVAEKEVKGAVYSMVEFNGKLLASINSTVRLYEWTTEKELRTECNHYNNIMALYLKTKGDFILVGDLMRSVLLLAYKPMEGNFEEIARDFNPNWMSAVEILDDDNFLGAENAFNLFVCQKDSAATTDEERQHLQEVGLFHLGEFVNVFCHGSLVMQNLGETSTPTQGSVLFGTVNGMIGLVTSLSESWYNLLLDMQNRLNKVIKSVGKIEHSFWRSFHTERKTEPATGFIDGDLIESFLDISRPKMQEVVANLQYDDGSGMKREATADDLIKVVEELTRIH
Description: Thus, Compound D-induced GSPT1 degradation is also CRBN-dependent.
The reduction in the level of GSPT1 protein was concentration-dependent over the range of 3 to 1000 nM in eight of the nine AML cell lines and over the range of 300 to 1000 nM in one relatively insensitive AML cell line. The time course of the reduction in GSPT1 by Compound D also was studied for up to 48 hours. The progressive degradation of GSPT1 over the course of 1 to 20 hours was evident in the presence of all concentrations of Compound D studied from 3 to 300 nM in HNT-34, HL-60, and ML-2 cells, with little GSPT1 remaining by 20 hours at 100 or 300 nM Compound D in HNT-34 or HL-60 cells (FIG. 34 and FIG. 35C). Time-dependent reduction in GSPT1 was also observed in KG-1 and OCI-AML2 cells at 3 to 1000 nM Compound D, with little GSPT1 remaining in KG-1 cells at 100 to 300 nM at 24 hours or in OCI-AML2 cells at 300 and 1000 nM at 24 hours (FIG. 35D). Loss of GSPT1 occurred more slowly in Kasumi-1, AML-193, and F36-P cells.
Compound D-mediated GSPT1 reduction at 8 hours was compared to induction of caspase 3/7 activation (apoptosis) at 12, 24, and 48 hour time points in these nine AML cell lines. […] A positive association (r^2=0.50; R=0.71; p value=4.86E-002) was observed between the level of GSPT1 reduction and apoptosis induction in the AML cell panel (FIG. 36), with >90% GSPT1 reduction correlating with induction of apoptosis.

p-eIF2α = p-eIF2α immunoblot, OCI-AML2; assay type: cell-based, human; details: 300 μg/ml G418 or 200 nM Compound D
Description: as §1

healthy donor PBMCs = assay: Anti-proliferation, healthy donor PBMCs; assay type: cell-based; details: Homo sapiens, PBMC; healthy donor PBMCs (data not shown)
HNT-34 cells = assay: Anti-proliferation 72-hour CTG assay, HNT-34; assay type: cell-based; details: Homo sapiens
Description: A plethora of AML cell lines were treated with serial dilutions of Compound D. IC50 value of the anti-proliferation effect of Compound D (as determined in 72-hour CTG assays) in each cell line is summarized in Table 1.

Q: Which results are given for `O=C1CCC(N2Cc3cc(CNC(=O)C(F)(F)c4ccc(Cl)cc4)ccc3C2=O)C(=O)N1` (stereo not drawn) [Compound D, 2-(4-chlorophenyl)-N-((2-(2,6-dioxopiperidin-3-yl)-1-oxoisoindolin-5-yl)methyl)-2,2-difluoroacetamide]?
A: translational readthrough [1]: induced translational readthrough at a comparable level; degradation of GSPT1 (GSPT1; CRBN -/- OCI-AML2 cells): could not induce degradation; reduction of GSPT1 protein levels (GSPT1; OC-AML2, 100 nM Compound D, 8 hours): greater than 800; Percent Reduction at 100 nM Compound D GSPTI (8 hr) (GSPT1; OCI-AML2, 100 nM, 8 hr): 89%; degradation of GSPT1 (GSPT1; parental OCI-AML2 cells): induced degradation; levels of p-eIF2α (p-eIF2α): increased the levels; IC50 (healthy donor PBMCs): > 10000 nM; IC50 (HNT-34 cells; HNT-34, read-out: anti-proliferative activity IC50): 3 nM; IC50 (HNT-34 cells; HNT-34, 72-hour CTG assay, read-out: IC50 of the anti-proliferative effect): 3 nM
